Entries after “also recorded” stand apart in the source; their conditions may differ. Positions of bridges follow the written chain, without caps; N, C: chain ends. Non-standard residues stand in square brackets, D forms with d. Residues, ends and D or L forms follow the SMILES beside them. Dab = NCC[C@H](N)C(=O)O

This is an account of results in PMC12418948, “Intranasal Administration of KCNN2 Blocking Peptide Improves Deficits in Cognitive Flexibility in Mouse Model of Fetal Alcohol Spectrum Disorders” (International Journal of Neuropsychopharmacology, 2025).

The subject of one series is KCNN2. Briefly: Intranasal delivery to PFC, immunohistochemistry for biotin and KCNN2. Particulars: PFC in addition to motor cortex. Type of series: in vivo, mouse (CD-1). How it is done: Mice were deeply anesthetized with isoflurane (Henry Schein, OH) and perfused through the ascending aorta with ice cold 4% paraformaldehyde (PFA) following a standard laboratory protocol. Brains were collected and post-fixed in 4% PFA at 4°C overnight, followed by incubation in 10% and 30% sucrose in PBS at 4°C for 24 hours. Coronal sections at 60 μm thickness were made using a cryostat (CM3050S; Leica, Germany). Free floating sections were incubated with hydrogen peroxide in methanol (1:4) solution at −20°C for 20 minutes to inactivate endogenous peroxidase activity. […]
Lei-Dab7 or biotinylated Lei-Dab7 (Smartox Biotechnology, France) was dissolved in PBS and administered to mice intranasally at 3.0 μg/kg/day. […] Physiological monitoring was recorded at 30 minutes and 24 hours post administration by using PhysioSuite (Kent Scientific, CT).
KCNN2, NeuN, GFAP, IBA1, and biotin-positive cells were quantified. […] Allen Brain Atlas was used to define different brain regions visualized by DAPI staining, and single-plane images from defined regions were used for the quantification. The researcher conducting the quantification was blinded to treatment groups throughout the analysis to minimize bias. The size of the region of interest was determined for each analysis to include a sufficient number of labeled cells with clear and detailed staining. […]

A short description of series [1]: Physiological monitoring (PhysioSuite) after intranasal administration. Type of series: in vivo, mouse (CD-1). How it is done:
Lei-Dab7 or biotinylated Lei-Dab7 (Smartox Biotechnology, France) was dissolved in PBS and administered to mice intranasally at 3.0 μg/kg/day. Vehicle (PBS) only was administered as the control. Briefly, the mouse was held softly on the neck to avoid any movement during drug administration. A 20-μL pipette was used to deliver 3 to 5 μL drug at a time. The tip was placed close enough to the mouse’s nostril at a 45-degree angle, and the drug was slowly ejected into the nostril. The mouse was let to inhale for 3 to 5 seconds and then left in a cage for 5 minutes to fully inhale the drug. This process was repeated until the required amount of drug was administered in a few minutes. The alternate nostril was used to deliver the drug each time to increase the efficiency of administration. Successful delivery by this method was confirmed by detecting biotinylated Lei-Dab7 in the brain, which was collected and immersion-fixed with 4% PFA at 15 minutes after intranasal administration using ABC (Thermo Fisher Scientific, NY) and TSA (PerkinElmer, MA) kits. For the analysis on the effect of treatment, Lei-Dab7 was administered daily throughout the reversal learning test phase of the water T-maze test. Physiological monitoring was recorded at 30 minutes and 24 hours post administration by using PhysioSuite (Kent Scientific, CT).
Supplementary Figure 4. […] Pulse oximetry, heart rate, and body temperature were recorded at 30 minutes and 24 hours post administration of vehicle control (30 minutes only) or Lei-Dab7 (30 minutes, 24 hours). Siblings from the same mother were used as the control for the Lei-Dab7 treatment. […] Data are presented in box plots. The line within the box indicates the median, and the upper and lower edges of the box represent the 25th and 75th percentiles, respectively. The upper and lower whisker boundaries indicate the 10th and 90th percentiles, respectively, and dots indicate outliers.

The subject of another series is rat. Further details: method as in 2 sources, one per row (each row's own in cited_ref): ref 82 = [82]; PMID 15985330; doi:10.1016/j.neulet.2005.05.050; 82. Deschaux O , Bizot JC . Apamin produces selective improvements of learning in rats . Neurosci Lett. 2005; 386 : 5 – 8 . 10.1016/j.neulet.2005.05.050 15985330 ||| ref 26, 82, 83 = [26]; PMID 18561910; doi:10.1016/j.ejphar.2008.05.019; 26. Mpari B , Sreng L , Regaya I , Mourre C . Small-conductance Ca(2+)-activated K(+) channels: heterogeneous affinity in rat brain structures and cognitive modulation by specific blockers . Eur J Pha || [82]; PMID 15985330; doi:10.1016/j.neulet.2005.05.050; 82. Deschaux O , Bizot JC . Apamin produces selective improvements of learning in rats . Neurosci Lett. 2005; 386 : 5 – 8 . 10.1016/j.neulet.2005.05.050 15985330 || [83]; PMID 9148239; doi:10.1016/s0304-3940(97)13367-5; 83. Deschaux O , Bizot JC , Goyffon M . Apamin improves learning in an object recognition task in rats . Neurosci Lett. 1997; 222 : 159 – 162 . 10.1016/s0304-3940(97)13367-5 9148239. Particulars: cited from earlier work.

Setting [2] is: P40, 30 minutes and 24 hours post administration, one-way ANOVA, n = 6 animals from 3 litters per group.

For the compound `CC[C@H](C)[C@@H]1NC(=O)[C@@H]2CSSC[C@H](NC(=O)[C@H](Cc3ccccc3)NC(=O)[C@H](C)N)C(=O)N[C@@H](CC(N)=O)C(=O)N[C@@H](CC(C)C)C(=O)N[C@@H](CCCNC(=N)N)C(=O)N[C@@H](CCN)C(=O)N[C@H]3CSSC[C@H](NC(=O)[C@H](CCCCN)NC(=O)[C@H](CC(=O)O)NC(=O)CNC1=O)C(=O)N[C@@H](CCC(=O)O)C(=O)N[C@H](C(=O)N[C@H](C(=O)N[C@@H](CCCCN)C(=O)N[C@@H](Cc1c[nH]cn1)C(N)=O)C(C)C)CSSC[C@H](NC(=O)[C@H](CO)NC(=O)[C@H](CC(C)C)NC(=O)[C@H](CCC(N)=O)NC3=O)C(=O)N[C@@H](CCCNC(=N)N)C(=O)N[C@@H](CO)C(=O)N[C@@H](CC(C)C)C(=O)NCC(=O)N[C@@H](CC(C)C)C(=O)N[C@@H](CC(C)C)C(=O)NCC(=O)N[C@@H](CCCCN)C(=O)N2` [Lei-Dab7, Leiurotoxin-1 Dab7] (H-AFCNLR[Dab]CQLSCRSLGLLGKCIGDKCECVKH-NH2; disulfide 3-21, 8-26, 12-28), the “delivery to target brain regions” value in the series on KCNN2 is listed as “efficiently reaches the target in the brain; also recorded: effectively reaches its target regions, including the PFC (Figs. 3, 4) in addition to the motor cortex”. In series [1] (3.0 μg/kg intranasal, pulse oximetry, heart rate, body temperature, 30 minutes or 24 hours post administration), the “toxicity, 3 primary physiological measures” value is “without apparent acute physiological adverse effects; also recorded: No severe toxicity”. For the same compound, in series [1] (setting [2]), the “body temperature vs vehicle” value is “no statistically significant differences”, the “heart rate vs vehicle” value is “no statistically significant differences” and the “pulse oximetry vs vehicle” value was “no statistically significant differences”. The “adverse effects in control animals” value in series [1] (intranasal, control animals (Figs. 5, S4)) is “no apparent adverse effects in control animals”. Besides, the “negative effects on learning in rats” value in the series on rat was “no negative effects”.
